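Method: 48-hour compound exposure of cells in 96-well plates, five concentrations, linear interpolation of endpoints. At the GI50, growth is halved.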 Activity calls are given as the source filed them. Cut-off read from the data, not from the text of the source: active = GI50 up to about 1.1 µM and inactive = higher.
Tests used:
Test in all cases: NCI tumour cell line growth inhibition, 48 h
DLD-1 = system: DLD-1
DMS-114 = system: DMS-114
KM-20L2 = system: KM-20L2
LXFL 529 = system: LXFL 529
SNB-78 = system: SNB-78
Hs-578T = system: Hs-578T
DMS-273 = system: DMS-273
XF498 = system: XF498

Structure (SMILES) | GI50 (DLD-1) | GI50 (DMS-114) | GI50 (KM-20L2) | GI50 (LXFL 529) | GI50 (SNB-78) | GI50 (Hs-578T) | GI50 (DMS-273) | GI50 (XF498)
Cc1ccc(N2C(=O)N(c3ccc(C)cc3)C3(SC=NN3C)C2=O)cc1 (stereo not drawn) | 67.6 µM (inactive) | 31.2 µM (inactive) | 44 µM (inactive) | 64.1 µM (inactive) | > 100 µM (inactive) | – | – | –
CC12C(=O)OC(=O)C1(C)C1C=CC2O1 (stereo not drawn) | – | – | – | – | – | 29.1 µM (inactive) | – | –
O/N=C/c1ncccc1C1OCCO1 | > 100 µM (inactive) | > 100 µM (inactive) | > 100 µM (inactive) | > 100 µM (inactive) | > 100 µM (inactive) | – | > 100 µM (inactive) | > 100 µM (inactive)
CN1C(=O)C2(C)SC1(c1ccccc1)C1C(=O)N(c3ccccc3)C(=O)C12 (stereo not drawn) | – | – | – | – | – | > 100 µM (inactive) | – | –
CC(C)CCCC(C)[C@H]1CC[C@H]2[C@@H]3CC[C@H]4C[C@@H](CCC=C(c5cc(Cl)c(O)c(C(=O)O)c5)c5cc(Cl)c(O)c(C(=O)O)c5)CC[C@]4(C)[C@H]3CC[C@]12C (stereo partly drawn) | – | – | – | – | – | > 50 µM (inactive) | – | –
CC(C)(C)OC(=O)N1CCC(NC(=O)NC2CCN(C(=O)OC(C)(C)C)CC2)CC1 | – | – | – | – | – | > 100 µM (inactive) | – | –
C/C(=N\NC(=S)Nc1ccc(C(=O)O)cc1)c1ccccn1 | 27.7 µM (inactive) | 23.1 µM (inactive) | 25.8 µM (inactive) | 3.05 µM (inactive) | > 100 µM (inactive) | – | 24 µM (inactive) | 26.4 µM (inactive)
C#CC1(O)C(COP(=O)(O)OC(COCCCCCCCCCCCCCCCCCC)COP(=O)(O)OCC2OC(n3cc(C)c(=O)[nH]c3=O)CC2N=[N+]=[N-])OC(n2ccc(N)nc2=O)C1O (stereo not drawn) | – | – | – | – | – | 5.4 µM (inactive) | – | –
COc1ccc2c(c1)c(=Cc1ccc(N(C)C)cc1)c1cc(-c3ccccc3)[n+](C)n12 | – | – | – | – | – | 0.124 µM (active) | – | –
CCOC(=O)c1cc(-c2ccc(OC)c(OC)c2)cn1C | – | – | – | – | – | 7.03 µM (inactive) | – | –
O=C(CC(O)c1cccnc1)CC(O)c1cccnc1 (stereo not drawn) | – | – | – | – | – | 28.4 µM (inactive) | – | –
N/C(=N/O)N/N=C\c1cc(Cl)cc(Cl)c1O | 7.48 µM (inactive) | – | 5.57 µM (inactive) | – | 21.1 µM (inactive) | – | 0.347 µM (active) | 0.708 µM (active)
CC(C)/C(Cl)=N\OC(=O)Nc1ccc(C#N)cc1 | – | – | – | – | – | 15.1 µM (inactive) | – | –
NS(=O)(=O)c1ccc(NNc2c3ccccc3nc3c(C(=O)Nc4ccc(S(N)(=O)=O)cc4)cccc23)cc1 | – | – | – | – | – | 19.1 µM (inactive) | – | –
O=C1/C(=C/c2ccc(Cl)cc2)Sc2scc(-c3cccc([N+](=O)[O-])c3)[n+]21 | – | – | – | – | – | 5.48 µM (inactive) | – | –
CN(CCCN=C=S)CCCN1c2ccccc2CCc2ccccc21 | – | – | – | – | – | 2.04 µM (inactive) | – | –
CN1CCC2(CC1)SC[C@H]1C(=O)N(c3ccc(Cl)cc3)C(=O)N12 | – | – | – | – | – | > 100 µM (inactive) | – | –
CC(C)(C)c1cc(Cc2ccc(S(C)(=O)=O)cc2)c(O)c(C(C)(C)C)c1 | 17.5 µM (inactive) | 13.5 µM (inactive) | 15.7 µM (inactive) | 15.5 µM (inactive) | 16.3 µM (inactive) | – | 14.3 µM (inactive) | 15.2 µM (inactive)
CO/C(=N\N=C\c1ccc(Cl)cc1)c1ccncc1 | > 100 µM (inactive) | > 100 µM (inactive) | > 100 µM (inactive) | > 100 µM (inactive) | > 100 µM (inactive) | – | > 100 µM (inactive) | > 100 µM (inactive)
CC(=O)Nc1ccc(C(=O)N2N=C(C)/C(=C/c3cccc(O)c3)C2=O)cc1 | > 100 µM (inactive) | > 100 µM (inactive) | – | – | – | – | > 100 µM (inactive) | > 100 µM (inactive)
COC(=O)C1=CC2OC1(C)CCC2=O (stereo not drawn) | 80.5 µM (inactive) | – | > 100 µM (inactive) | > 100 µM (inactive) | – | – | > 100 µM (inactive) | > 100 µM (inactive)
Cc1cc2c(cc1C)[n+]([O-])c(C(=O)N1CCN(c3ccc([N+](=O)[O-])cc3)CC1)c(C)[n+]2[O-] | – | – | – | – | – | 96.2 µM (inactive) | – | –
COC(=O)C1CCC(=O)N1C(c1ccc(OC)cc1)c1ccc2c(c1)OCO2 (stereo not drawn) | – | – | – | – | – | 36.2 µM (inactive) | – | –
N=C(N)SCCN1CCCCC1 | – | – | – | – | – | 11.7 µM (inactive) | – | –
N/N=c1\c2ccccc2c2ccc3c4ccccc4/c(=N\N)c3c12 | > 100 µM (inactive) | > 100 µM (inactive) | > 100 µM (inactive) | > 100 µM (inactive) | > 100 µM (inactive) | – | > 100 µM (inactive) | –
Cc1ccc(/C=N/n2c(Cc3ccccc3)n[nH]c2=O)cc1 | – | – | – | – | – | 65.2 µM (inactive) | – | –
CN1C=C(C(N)=O)Cc2ccsc21 | > 100 µM (inactive) | > 100 µM (inactive) | > 100 µM (inactive) | > 100 µM (inactive) | > 100 µM (inactive) | – | > 100 µM (inactive) | –
Clc1ccc(Cc2nc3cc(Cl)c(Cl)cc3n2CC2CCCN3CCCCC23)cc1Cl (stereo not drawn) | – | – | – | – | – | 3.4 µM (inactive) | – | –
O=[N+]([O-])c1cc(C(F)(F)F)cc2c1SC1=Nc3ccccc3CN12 | > 100 µM (inactive) | > 100 µM (inactive) | > 100 µM (inactive) | – | > 100 µM (inactive) | – | > 100 µM (inactive) | > 100 µM (inactive)

— ChEMBL document CHEMBL1201862, “PubChem BioAssay data set” (2004)
